The values below come from patent publication US8946478B2, “Benzamide derivative with anticancer activity and preparation method and use thereof” (Zhejiang Hisun Pharmaceutical Co., Ltd., priority 2010, dated 2015).

For one assay, the system named is 18 tumor cell strains. Kind of assay: In vitro efficacy screening, summary over the tumor cell strains. The format is cell-based, human.
Assay [1] relates to human cancer xenograft tumor models. Kind of assay: In vivo efficacy screening, summary over the xenograft models. The arrangement: species or system BALB/C nude mice. The settings on record: 30 mg/kg I-1 against 80 mg/kg BSI-201, nude mouse xenografts. From the text:
5-6 week old female or male BALB/C nude mice, about 18-20 g in weight, were raised. Human cancer xenograft tumor model in nude mouse was established by the following steps: human colon cancer cell strains HCT-116 and Colo205, human breast cancer cell strain MDA-MB435, human prostate cancer cell strain BXPC-3, human ovarian cancer cell strain SKOV-3, human lung cancer cell strain A549, human pancreatic cancer cell strain PANC-1, and human uterine cancer cell strain Hela were all obtained from ATCC. […] 0.2 mL cell suspension was drawn directly by a syringe with […] and subcutaneously transplanted into the scapula part of the rear part of nude mouse's left armpit, 2×10^6/0.2 mL for each mouse, and the tumor volume was measured every 2-3 days. […]
The mice were randomly divided into 5 groups, including negative control group (solvent), positive control group (BSI-201, 80 mg/kg), and three treatment groups with high, middle and low doses (40 mg/kg, 30 mg/kg, and 20 mg/kg respectively, wherein the high dose was below the MTD), and there were 8 nude mice in each group except that there are 16 ones in the negative control group. They were administered by intraperitoneal injection once a day for 3 consecutive weeks, during which body weight and tumor volume of the animals were detected and the death number of animals was recorded every 2 days. […]

As to `C#Cc1ccc(C(N)=O)cc1[N+](=O)[O-]` [Compound I-1, 4-ethynyl-3-nitrobenzamide], the “efficacy relative to the positive drug BSI-201” value with 18 tumor cell strains (in the measured 18 tumor cell strains) stood at 10 times. Moreover, in the assay with 18 tumor cell strains (in vitro screening, BSI-201 as positive drug), the “inhibitory effects on tumor cell proliferation (in words)” value is “have inhibitory effects on tumor cell proliferation”. The “in vivo efficacy compared with BSI-201 (in words)” value in assay [1] is given as “equivalent efficacy to that of 80 mg/kg BSI-201”.
